Experimental data taken from PubChem BioAssay AID1117330.
Active and inactive are the calls of the source. The rule behind the calls is not given here.

What follows are compounds tested on HT-29 viability, CellTiter-Glo luminescence (assay: cytotoxicity toward HT-29 cells – cell-based, CellTiter-Glo luminescence, IC50, dose response (AID 1117330)).
With `O=C1[O][Bi][O]c2ccccc21` the IC50 was > 20 µM (inactive).
Compound `OCCN1CCN(CC/C=C2/c3ccccc3Sc3ccc(C(F)(F)F)cc32)CC1` has an IC50 of 1.81 µM.
`O=C(O)C1(C(=O)O)CCC1.[NH2-].[NH2-].[Pt+2]` was tested, and the IC50 was > 20 µM (inactive).
Compound `Cc1ccc([N+](=O)[O-])[c]2c1[O][Hg]2` has an IC50 of 1.44 µM.
`CCCCCCCCCCCCCC[N+](C)(C)C` was tested, and the IC50 was 1.32 µM.
For `CC(=O)[O][Hg][c]1ccccc1`, the IC50 was 0.799 µM.
